Data: US9867786B2, “Stabilized compositions containing alkaline labile drugs” (AUXILIUM US HOLDINGS, LLC, priority 2006, dated 2018)

Experiment: Determination of drug stability: testosterone impurities/degradants in hot-melt extruded composition by HPLC
Assay type: physicochemical
Description: Testosterone and any other ingredients were added to the wet granulated excipient mixture prepared according to Example 1. The blend was extruded as a monolayer film using a having a barrel temperature of 135° C. The moisture content of the blend prior to extrusion was 3.1%. The HME composition is then analyzed by HPLC according to Example 4 to determine the amount of degradants present.
Twenty doses were sampled from a HME composition at the beginning, middle and end of the extrusion run a formulation. Composites of 10 doses were analyzed in duplicate for impurities by HPLC at each time point. The weight percent for each degradant was determined. Specific degradants analyzed include: 6B-Hydroxy-testosterone, 4-Androsten-16-alpha-ol-3,17-dione, Epi-Testosterone and unidentified degradants. The HPLC method employed will vary according to the drug included in the HME composition. Such methods are found in HPLC in the Pharmaceutical Industry (edited by Godwin W. Fong, Stanley K. Lam, New York: M. Dekker, 1991) or HPLC Methods for Pharmaceutical Analysis (by George Lunn and Norman R. Schmuff. New York: John Wiley & Sons, 1997), the disclosures of which are hereby incorporated by reference.

[1] = HME composition extruded at 135 ° C.
[2] = HME composition extruded at 145 ° C.
[3] = HME composition, granulation fluid Aqueous Ethanol
[4] = HME composition, granulation fluid Water

C[C@]12CC[C@H]3[C@@H](CCC4=CC(=O)CC[C@@]43C)[C@@H]1CC[C@@H]2O [testosterone]
Total Unknown Impurities (%) (HME composition (PolyOx, Poloxamer wet granulated with water, Carbopol) extruded at 135 ° C.): 0.1% | Total Unknown Impurities (%) (HME composition (PolyOx, Poloxamer wet granulated with water, Carbopol) extruded at 145 ° C.): 0.4% | 4-Androsten-16-alpha-ol-3,17-dione (%) [1]: ND (ND denotes below the limit of quantitation using the HPLC method detailed herein. In this case, ND means less than 0.1% by wt.) | 6B-Hydroxy-testosterone (%) [1]: ND (ND denotes below the limit of quantitation using the HPLC method detailed herein. In this case, ND means less than 0.1% by wt.) | Epi-Testosterone (%) [1]: ND (ND denotes below the limit of quantitation using the HPLC method detailed herein. In this case, ND means less than 0.1% by wt.) | 4-Androsten-16-alpha-ol-3,17-dione (%) [2]: ND (ND denotes below the limit of quantitation using the HPLC method detailed herein. In this case, ND means less than 0.1% by wt.) | 6B-Hydroxy-testosterone (%) [2]: 0.15% | Epi-Testosterone (%) [2]: ND (ND denotes below the limit of quantitation using the HPLC method detailed herein. In this case, ND means less than 0.1% by wt.) | 4-Androsten-16-alpha-ol-3,17-dione (%) [3]: 0.00-0.20% | 6B-Hydroxy-testosterone (%) [3]: 0.00-0.20% | Epi-Testosterone (%) [3]: 0.00-0.50% | Total Unknown Impurities (%) (HME composition, granulation fluid Aqueous Ethanol (50:50 water/ethanol)): 0.00-0.75% | 4-Androsten-16-alpha-ol-3,17-dione (%) [4]: 0.10-0.50% | 6B-Hydroxy-testosterone (%) [4]: 0.10-0.50% | Epi-Testosterone (%) [4]: 0.00-0.50% | Total Unknown Impurities (%) [4]: 0.50-1.00%
